PMC3076737 (Journal of medicinal chemistry, 2010)

What was measured:
CB1 receptor [1] = molecular target: T1, CB1 receptor (Homo sapiens, UniProt P21554); type: binding; details: data not shown
CB1 receptor [2] = molecular target: T1, CB1 receptor; assay: GTP-γ-S assay of compounds 3 and 4, preparation not stated, data not shown; type: biochemical
CB1 receptor [3] = molecular target: T1, CB1 receptor; type: cell-based; details: data not shown
CB1 receptor [4] = molecular target: T1, CB1 receptor; assay: Competitive displacement binding vs [3H]CP55,940 in hCB1 membranes; details: both radioligands
human CB2 receptor = human CB2 receptor (Homo sapiens, UniProt P34972); assay: Competitive displacement binding vs [3H]CP55,940 in hCB2 membranes; details: read-out: Displacement vs. 3H-CP55,940: Ki (nM) in hCB2; Table 2
Sequence of human CB2 receptor (P34972 whole entry): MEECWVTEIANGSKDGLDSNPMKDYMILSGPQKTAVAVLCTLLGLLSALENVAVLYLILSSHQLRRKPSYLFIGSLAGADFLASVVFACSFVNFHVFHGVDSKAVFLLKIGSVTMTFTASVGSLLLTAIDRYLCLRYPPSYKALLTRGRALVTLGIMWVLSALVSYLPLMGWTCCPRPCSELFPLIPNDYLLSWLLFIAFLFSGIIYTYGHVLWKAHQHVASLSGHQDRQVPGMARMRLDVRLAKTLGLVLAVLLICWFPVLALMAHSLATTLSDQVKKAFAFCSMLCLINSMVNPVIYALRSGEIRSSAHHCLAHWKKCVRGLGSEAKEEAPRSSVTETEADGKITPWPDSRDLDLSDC

T1 sequence (P21554 whole entry): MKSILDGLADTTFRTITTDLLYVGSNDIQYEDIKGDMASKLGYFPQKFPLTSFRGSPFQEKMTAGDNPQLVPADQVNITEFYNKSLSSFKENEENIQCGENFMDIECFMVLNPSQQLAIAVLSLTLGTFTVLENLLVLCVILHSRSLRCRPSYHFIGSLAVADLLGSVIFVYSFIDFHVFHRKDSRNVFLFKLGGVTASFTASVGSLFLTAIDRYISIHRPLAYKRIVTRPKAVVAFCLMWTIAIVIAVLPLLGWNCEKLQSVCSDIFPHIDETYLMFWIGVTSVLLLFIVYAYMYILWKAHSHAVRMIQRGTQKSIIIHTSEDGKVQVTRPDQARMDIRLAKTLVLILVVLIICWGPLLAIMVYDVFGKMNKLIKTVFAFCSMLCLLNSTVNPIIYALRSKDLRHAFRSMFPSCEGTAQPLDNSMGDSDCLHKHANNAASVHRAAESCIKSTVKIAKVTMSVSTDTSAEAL

With `Cc1c(C(=O)NCCOCCOCCOCCNC(=O)c2nn(-c3ccc(Cl)cc3Cl)c(-c3ccc(Cl)cc3)c2C)nn(-c2ccc(Cl)cc2Cl)c1-c1ccc(Cl)cc1` [Compound 3, 5-(4-chlorophenyl)-N-{13-[5-(4-chlorophenyl)-1-(2,4-dichlorophenyl)-4-methyl-1H-pyrazol-3-yl]-13-oxo-3,6,9-trioxa-12-azatridec-1-yl}-1-(2,4-dichlorophenyl)-4-methyl-1H-pyrazole-3-carboxamide] the “Affinity in radiolabeled binding” value (CB1 receptor [1]) was “low affinity”, the “Activity in GTP-γ-S assay” value (CB1 receptor [2]) was “inactive” and the “Activity in calcium assay” value (CB1 receptor [3]) was “inactive”.

For `Cc1c(C(=O)NCCCCCCCNCCCCCCCNC(=O)c2nn(-c3ccc(Cl)cc3Cl)c(-c3ccc(Cl)cc3)c2C)nn(-c2ccc(Cl)cc2Cl)c1-c1ccc(Cl)cc1` [Compound 5d, N,N′-(iminodiheptane-7,1-diyl)bis[5-(4-chlorophenyl)-1-(2,4-dichlorophenyl)-4-methyl-1H-pyrazole-3-carboxamide]], the “Affinity higher than the corresponding monovalent control (7d)” value (CB1 receptor [4]) was roughly 4 fold.

For `Cc1c(C(=O)NCC(=O)NCC(=O)NCCN)nn(-c2ccc(Cl)cc2Cl)c1-c1ccc(Cl)cc1` [Compound 4, N-{[5-(4-chlorophenyl)-1-(2,4-dichlorophenyl)-4-methyl-1H-pyrazol-3-yl]carbonyl}glycyl-N-(2-aminoethyl)glycinamide], the “Affinity in radiolabeled binding” value (CB1 receptor [1]) was “low affinity”, the “Activity in GTP-γ-S assay” value (CB1 receptor [2]) was “inactive” and the “Activity in calcium assay” value (CB1 receptor [3]) was “inactive”.

With `Cc1c(C(=O)NCCCCCN(C)CCCCCN)nn(-c2ccc(Cl)cc2Cl)c1-c1ccc(Cl)cc1` [Compound 8a, N-{5-[(5-aminopentyl)(methyl)amino]pentyl}-5-(4-chlorophenyl)-1-(2,4-dichlorophenyl)-4-methyl-1H-pyrazole-3-carboxamide] the Ki (human CB2 receptor) was greater than 2500 nM.

Work on `Cc1c(C(=O)NCCCCCCCCCCCN(C)CCCCCCCCCCCNC(=O)c2nn(-c3ccc(Cl)cc3Cl)c(-c3ccc(Cl)cc3)c2C)nn(-c2ccc(Cl)cc2Cl)c1-c1ccc(Cl)cc1` [Compound 6d, N,N′-[(methylimino)diundecane-11,1-diyl]bis[5-(4-chlorophenyl)-1-(2,4-dichlorophenyl)-4-methyl-1H-pyrazole-3-carboxamide]] yielded a Ki (human CB2 receptor) greater than 2500 nM.

`Cc1c(C(=O)NCCCCCCCCCN(C)CCCCCCCCCNC(=O)c2nn(-c3ccc(Cl)cc3Cl)c(-c3ccc(Cl)cc3)c2C)nn(-c2ccc(Cl)cc2Cl)c1-c1ccc(Cl)cc1` [Compound 6c, N,N′-[(methylimino)dinonane-9,1-diyl]bis[5-(4-chlorophenyl)-1-(2,4-dichlorophenyl)-4-methyl-1H-pyrazole-3-carboxamide]] gave a Ki (human CB2 receptor) greater than 2500 nM.
